Laboratory results taken from the NIST ThermoML archive (doi:10.1021/je049824c).
± gives the expanded uncertainty stated by the source.

Experiments:
[1] = Liquid, Closed cell (Static) method
[2] = excess molar enthalpy (molar enthalpy of mixing); xn = mol fraction of the nth substance listed; conditions: 14100 kPa, Liquid, Flow calorimetry

COC(=O)C(C)O (stereo not drawn) [methyl 2-hydroxypropanoate]
[1]
Conditions | vapor or sublimation pressure [kPa]
283.15 K | 0.17 ± 0.04
293.15 K | 0.43 ± 0.04
303.15 K | 0.87 ± 0.04

COC(=O)C(C)O (stereo not drawn) [methyl 2-hydroxypropanoate] + O
excess molar enthalpy [kcal/mol], [2]
Conditions | 303.15 K | 333.15 K
x2 = 0.0632 | 0.004 ± 0.000215 | -0.00394 ± 0.000215
x2 = 0.1202 | 0.00357 ± 0.000213 | -0.00928 ± 0.000311
x2 = 0.219 | -0.000437 ± 0.000189 | -0.0211 ± 0.000526
x2 = 0.3016 | -0.00462 ± 0.000222 | -0.0288 ± 0.000693
x2 = 0.3718 | -0.00866 ± 0.000287 | -0.0345 ± 0.000813
x2 = 0.4321 | -0.0134 ± 0.000382 | -0.0398 ± 0.000908
x2 = 0.5083 | -0.0221 ± 0.00055 | -0.0479 ± 0.00108
x2 = 0.5711 | -0.0295 ± 0.000693 | -0.0552 ± 0.00124
x2 = 0.6397 | -0.0384 ± 0.000884 | -0.0643 ± 0.00143
x2 = 0.7195 | -0.0493 ± 0.00112 | -0.0756 ± 0.00167
x2 = 0.7803 | -0.0572 ± 0.00129 | -0.0839 ± 0.00184
x2 = 0.8419 | -0.0642 ± 0.00143 | -0.0901 ± 0.00198
x2 = 0.8988 | -0.0647 ± 0.00143 | -0.0891 ± 0.00196
x2 = 0.9411 | -0.0552 ± 0.00124 | -0.0767 ± 0.0017
x2 = 0.9796 | -0.0288 ± 0.000693 | -0.0394 ± 0.000908
